The source of these data is publication PMC12423301, “Astrocytic monoamine oxidase B (MAOB)–gamma-aminobutyric acid (GABA) axis as a molecular brake on repair following spinal cord injury” (Signal Transduction and Targeted Therapy, 2025).

For data set [1], the system named is primary cultured spinal cord astrocytes. Put plainly: BDNF expression in cultured astrocytes (qPCR, Western blot). In kind it is cell-based, mouse. On the technique in general: Quantitative PCR measures a nucleic acid by following its amplification.
Data set [2] concerns APP/PS1 transgenic mice. Put plainly: Cognitive tests in APP/PS1 transgenic mice. In kind it is in vivo, mouse. Conditions: 4-week repeated dosing test.
The subject of data set [3] is APP/PS1 transgenic mice. Put plainly: Tonic GABA current, neuronal firing and DAO compensation in APP/PS1 mice. In kind it is in vivo, mouse. The conditions noted are these: 4-week repeated dosing test.
The conditions of data set [4]: similar drugs; ref ZELAPAR®, XADAGO®; cited from earlier work.

For `NCCCC(=O)O` [GABA, γ-aminobutyric acid], the “mRNA expression level of BDNF” value in data set [1] (GABA 100 μM, 24 h) is reported as “significantly downregulated”. The “proBDNF expression (Western blotting)” value in data set [1] (GABA-treated) was “reduction”.

As for `C#CCN(C)[C@H](C)Cc1ccccc1` [selegiline, reference compound], in data set [2], the cognitive function entry is on record as “cognitive function decline”. The figures for the neuronal firing result in data set [3] (2nd week) and in data set [3] (4th week) were “started to decrease” and “completely lost”, respectively. Besides, the Tmax in data set [4] was 45 min.

By Tmax is commonly meant the time at which the peak concentration occurs.
